From patent publication EP0326329B1, “Quinazoline derivatives useful as insecticides” (Dow AgroSciences LLC, priority 1988, dated 1989)

Columns and labels:
Assay type in all cases: in vivo
[1] = tested on: Erysiphe graminis tritici (powdery mildew); experiment: Greenhouse Test 1, foliar spray fungicide screen (POWD MDEW), host wheat; details: disease control rating, 400 ppm (+++ at 100 ppm)
[2] = tested on: Pyricularia oryzae (rice blast); details: disease control rating, foliar spray, host rice; 400 ppm (+++ at 100 ppm)
[3] = tested on: Puccinia recondita tritici (leaf rust); experiment: Greenhouse Test 1, foliar spray fungicide screen (LEAF RUST), host wheat; details: disease control rating, 400 ppm (+++ at 100 ppm)
[4] = tested on: Botrytis cinerea (gray mold); experiment: Greenhouse Test 1, foliar spray fungicide screen (GRAY MOLD), host grape berries; details: disease control rating, 400 ppm (+++ at 100 ppm)
[5] = tested on: Pseudoperonospora cubensis (downy mildew); experiment: Greenhouse Test 1, foliar spray fungicide screen (DOWN MDEW), host squash; details: disease control rating, 400 ppm (+++ at 100 ppm)
[6] = tested on: Southern corn rootworm (Diabrotica undecimpuctata howardi Barber); experiment: Mite/insect screen, soil treatment (CRW); details: Diabrotica, percent mortality, soil treatment, read-out: CRW RESULTS %; for mortality at 12 ppm: CRW rate 12.00 ppm; for mortality at 24 ppm: CRW rate 24.00 ppm
Outline: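 Five 2–3 instar larvae were placed on dry sandy soil with a presoaked corn seed after the soil had received 1 mL of compound solution and dried 6–12 h; cups were kept capped at 23°C. Mortality (%) and phytotoxicity were read after standard exposure. Formulation: acetone/alcohol with emulsifiers, water-diluted.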

[7] = tested on: southern armyworm (Spodopetra eridania Cramer); experiment: Mite/insect screen, sprayed squash leaves (SAW); details: Spodoptera eridania, percent mortality, read-out: SAW RESULTS %; for mortality at 200 ppm: spray rate 200 ppm; for mortality at 400 ppm: spray rate 400 ppm
Outline: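 Steps: formulate compound in acetone/alcohol 50:50 carrying emulsifiers; dilute with water; spray leaves until runoff on upper and lower surfaces; air-dry one hour; for armyworm, excise two […] leaves into a dish of larvae; after exposure, score mortality and plant injury.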

[8] = tested on: Twospotted spider mites (Tetranychus urticae Koch); experiment: Mite/insect screen, sprayed squash cotyledons (SM); details: Tetranychus urticae, percent mortality, read-out: SM RESULTS %; for mortality at 200 ppm: spray rate 200 ppm; for mortality at 400 ppm: spray rate 400 ppm
Outline: (§1)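 Mortality and phytotoxicity read after standard exposure periods on sprayed squash: cotyledons for melon aphids and twospotted spider mites, excised leaves placed with southern armyworm larvae. Spray solutions were water dilutions of acetone/alcohol stocks containing TOXIMUL R and S emulsifiers, applied to runoff at 10 psi and air-dried one hour.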

[9] = tested on: melon aphids (Aphis gossypii Glover); experiment: Mite/insect screen, sprayed squash cotyledons (MA); details: Aphis gossypii, percent mortality, read-out: MA RESULTS %; for mortality at 200 ppm: spray rate 200 ppm; for mortality at 400 ppm: spray rate 400 ppm
Outline: as §1

## FC(F)(F)c1cccc(CCCOc2ncnc3ccccc23)c1 [Example 196, 4-[3-(3-trifluoromethylphenyl)propoxy]quinazoline]
[1]
  POWD MDEW: ++ (++ = 90-100% control at 400 ppm)
[2]
  RICE BLAST: - (- = 0-19% control at 400 ppm)
[3]
  LEAF RUST: - (- = 0-19% control at 400 ppm)
[4]
  GRAY MOLD: - (- = 0-19% control at 400 ppm)
[5]
  DOWN MDEW: - (- = 0-19% control at 400 ppm)
[6]
  mortality at 12 ppm: 0%
  mortality at 24 ppm: 0%
[7]
  mortality at 200 ppm: 0%
  mortality at 400 ppm: 0%
[8]
  mortality at 200 ppm: 0%
  mortality at 400 ppm: 0%
[9]
  mortality at 200 ppm: 0%
  mortality at 400 ppm: 0%

## Fc1cccc2c(OCCC3CCCCC3)ncnc12 [Example 70, 4-(2-cyclohexylethoxy)-8-fluoroquinazoline]
[1]
  POWD MDEW: + (+ = 20-89% control at 400 ppm)
[2]
  RICE BLAST: +++ (+++ = 90-100% control at 100 ppm)
[3]
  LEAF RUST: + (+ = 20-89% control at 400 ppm)
[4]
  GRAY MOLD: - (- = 0-19% control at 400 ppm)
[5]
  DOWN MDEW: + (+ = 20-89% control at 400 ppm)
[6]
  mortality at 24 ppm: 0%
[7]
  mortality at 400 ppm: 0%
[8]
  mortality at 400 ppm: 80%
[9]
  mortality at 400 ppm: 0%

## Oc1ccc(CCCOc2ncnc3ccccc23)cc1 [Example 121, 4-[3-(4-hydroxyphenyl)propoxy]quinazoline]
[1]
  POWD MDEW: - (- = 0-19% control at 400 ppm)
[2]
  RICE BLAST: - (- = 0-19% control at 400 ppm)
[3]
  LEAF RUST: - (- = 0-19% control at 400 ppm)
[4]
  GRAY MOLD: - (- = 0-19% control at 400 ppm)
[5]
  DOWN MDEW: - (- = 0-19% control at 400 ppm)
[6]
  mortality at 12 ppm: 0%
  mortality at 24 ppm: 0%
[7]
  mortality at 200 ppm: 0%
  mortality at 400 ppm: 0%
[8]
  mortality at 200 ppm: 0%
  mortality at 400 ppm: 0%
[9]
  mortality at 200 ppm: 0%
  mortality at 400 ppm: 0%

## CC(C)C(COc1ncnc2ccccc12)c1ccccc1 (centres unmarked) [Example 165, 4-(3-methyl-2-phenylbutoxy)quinazoline]
[1]
  POWD MDEW: ++ (++ = 90-100% control at 400 ppm)
[2]
  RICE BLAST: ++ (++ = 90-100% control at 400 ppm)
[3]
  LEAF RUST: ++ (++ = 90-100% control at 400 ppm)
[4]
  GRAY MOLD: - (- = 0-19% control at 400 ppm)
[5]
  DOWN MDEW: ++ (++ = 90-100% control at 400 ppm)
[6]
  mortality at 12 ppm: 0%
  mortality at 24 ppm: 0%
[7]
  mortality at 200 ppm: 0%
  mortality at 400 ppm: 0%
[8]
  mortality at 200 ppm: 0%
  mortality at 400 ppm: 0%
[9]
  mortality at 200 ppm: 50%
  mortality at 400 ppm: 80%

## CC(C)(C)c1ccc(CCOc2ncnc3c(Cl)cccc23)cc1 [Example 185, 8-chloro-4-[2-[4-(t-butyl)phenyl]ethoxy]quinazoline]
[1]
  POWD MDEW: + (+ = 20-89% control at 400 ppm)
[2]
  RICE BLAST: ++ (++ = 90-100% control at 400 ppm)
[3]
  LEAF RUST: + (+ = 20-89% control at 400 ppm)
[4]
  GRAY MOLD: - (- = 0-19% control at 400 ppm)
[5]
  DOWN MDEW: ++ (++ = 90-100% control at 400 ppm)
[6]
  mortality at 12 ppm: 0%
  mortality at 24 ppm: 0%
[7]
  mortality at 200 ppm: 0%
  mortality at 400 ppm: 0%
[8]
  mortality at 200 ppm: 80%
  mortality at 400 ppm: 30%
[9]
  mortality at 200 ppm: 50%
  mortality at 400 ppm: 30%

## COc1cccc(CCOc2ncnc3ccccc23)c1 [Example 13, 4-[2-(3-methoxyphenyl)ethoxy]quinazoline]
[1]
  POWD MDEW: +++ (+++ = 90-100% control at 100 ppm)
[2]
  RICE BLAST: +++ (+++ = 90-100% control at 100 ppm)
[3]
  LEAF RUST: +++ (+++ = 90-100% control at 100 ppm)
[4]
  GRAY MOLD: - (- = 0-19% control at 400 ppm)
[5]
  DOWN MDEW: +++ (+++ = 90-100% control at 100 ppm)
[6]
  mortality at 24 ppm: 0%
[7]
  mortality at 400 ppm: 0%
[8]
  mortality at 400 ppm: 90%
[9]
  mortality at 400 ppm: 90%

## CC(C)(C)c1ccc(CCCCOc2ncnc3ccccc23)cc1 [Example 178, 4-[4-[4-(t-butyl)phenyl]butoxy]quinazoline]
[1]
  POWD MDEW: ++ (++ = 90-100% control at 400 ppm)
[2]
  RICE BLAST: - (- = 0-19% control at 400 ppm)
[3]
  LEAF RUST: - (- = 0-19% control at 400 ppm)
[4]
  GRAY MOLD: + (+ = 20-89% control at 400 ppm)
[5]
  DOWN MDEW: + (+ = 20-89% control at 400 ppm)
[6]
  mortality at 12 ppm: 0%
  mortality at 24 ppm: 0%
[7]
  mortality at 200 ppm: 0%
  mortality at 400 ppm: 0%
[8]
  mortality at 200 ppm: 40%
  mortality at 400 ppm: 100%
[9]
  mortality at 200 ppm: 80%
  mortality at 400 ppm: 100%

## OC(CNc1ncnc2ccccc12)c1ccc2ccccc2c1 (stereo not drawn) [Example 105, α-[(4-quinazolinylamino)methyl]-2-naphthalenemethanol]
[1]
  POWD MDEW: - (- = 0-19% control at 400 ppm)
[2]
  RICE BLAST: + (+ = 20-89% control at 400 ppm)
[3]
  LEAF RUST: ++ (++ = 90-100% control at 400 ppm)
[4]
  GRAY MOLD: - (- = 0-19% control at 400 ppm)
[5]
  DOWN MDEW: - (- = 0-19% control at 400 ppm)
[6]
  mortality at 24 ppm: 0%
[7]
  mortality at 400 ppm: 0%
[8]
  mortality at 400 ppm: 0%
[9]
  mortality at 400 ppm: 0%

## CC(C)Cc1ccc(C(C)COc2ncnc3c(F)cccc23)cc1 (centres unmarked) [Example 113, 8-fluoro-4-[2-[4-(2-methylpropyl)phenyl]propoxy]quinazoline]
[1]
  POWD MDEW: + (+ = 20-89% control at 400 ppm)
[2]
  RICE BLAST: +++ (+++ = 90-100% control at 100 ppm)
[3]
  LEAF RUST: +++ (+++ = 90-100% control at 100 ppm)
[4]
  GRAY MOLD: - (- = 0-19% control at 400 ppm)
[5]
  DOWN MDEW: +++ (+++ = 90-100% control at 100 ppm)
[6]
  mortality at 12 ppm: 0%
  mortality at 24 ppm: 0%
[7]
  mortality at 200 ppm: 0%
  mortality at 400 ppm: 40%
[8]
  mortality at 200 ppm: 100%
  mortality at 400 ppm: 0%
[9]
  mortality at 200 ppm: 100%
  mortality at 400 ppm: 0%

## Clc1ccccc1CCOc1ncnc2ccccc12 [Example 11, 4-[2-(2-chlorophenyl)ethoxy]quinazoline]
[1]
  POWD MDEW: ++ (++ = 90-100% control at 400 ppm)
[2]
  RICE BLAST: - (- = 0-19% control at 400 ppm)
[3]
  LEAF RUST: ++ (++ = 90-100% control at 400 ppm)
[4]
  GRAY MOLD: - (- = 0-19% control at 400 ppm)
[5]
  DOWN MDEW: +++ (+++ = 90-100% control at 100 ppm)
[6]
  mortality at 24 ppm: 0%
[7]
  mortality at 400 ppm: 0%
[8]
  mortality at 400 ppm: 0%
[9]
  mortality at 400 ppm: 0%

## Clc1ccc(CCCc2ncnc3ccccc23)cc1 [Example 117, 4-[3-(4-chlorophenyl)propyl]quinazoline]
[1]
  POWD MDEW: +++ (+++ = 90-100% control at 100 ppm)
[2]
  RICE BLAST: ++ (++ = 90-100% control at 400 ppm)
[3]
  LEAF RUST: +++ (+++ = 90-100% control at 100 ppm)
[4]
  GRAY MOLD: - (- = 0-19% control at 400 ppm)
[5]
  DOWN MDEW: ++ (++ = 90-100% control at 400 ppm)
[6]
  mortality at 12 ppm: 0%
  mortality at 24 ppm: 0%
[7]
  mortality at 200 ppm: 0%
  mortality at 400 ppm: 0%
[8]
  mortality at 200 ppm: 100%
  mortality at 400 ppm: 0%
[9]
  mortality at 200 ppm: 90%
  mortality at 400 ppm: 0%

## Cc1cccc2ncnc(NCCc3ccc(Cl)cc3)c12 [Example 36, N-[2-(4-chlorophenyl)ethyl]-5-methyl-4-quinazolinamine]
[1]
  POWD MDEW: - (- = 0-19% control at 400 ppm)
[2]
  RICE BLAST: + (+ = 20-89% control at 400 ppm)
[3]
  LEAF RUST: - (- = 0-19% control at 400 ppm)
[4]
  GRAY MOLD: - (- = 0-19% control at 400 ppm)
[5]
  DOWN MDEW: + (+ = 20-89% control at 400 ppm)
[6]
  mortality at 12 ppm: 0%
  mortality at 24 ppm: 0%
[7]
  mortality at 200 ppm: 0%
  mortality at 400 ppm: 0%
[8]
  mortality at 200 ppm: 0%
  mortality at 400 ppm: 0%
[9]
  mortality at 200 ppm: 0%
  mortality at 400 ppm: 0%

## FC(F)(F)Oc1ccc2ncnc(NCCc3ccc(Oc4ccccc4)cc3)c2c1 [Example 44, 6-(trifluoromethoxy)-N-[2-(4-phenoxyphenyl)ethyl]-4-quinazolinamine]
[1]
  POWD MDEW: - (- = 0-19% control at 400 ppm)
[2]
  RICE BLAST: - (- = 0-19% control at 400 ppm)
[3]
  LEAF RUST: - (- = 0-19% control at 400 ppm)
[4]
  GRAY MOLD: - (- = 0-19% control at 400 ppm)
[5]
  DOWN MDEW: + (+ = 20-89% control at 400 ppm)
[6]
  mortality at 24 ppm: 0%
[7]
  mortality at 400 ppm: 0%
[8]
  mortality at 400 ppm: 0%
[9]
  mortality at 400 ppm: 0%

## c1ccc(Oc2ccc(CCOc3ncnc4ccccc34)cc2)cc1 [Example 69, 4-[2-(4-phenoxyphenyl)ethoxy]quinazoline]
[1]
  POWD MDEW: +++ (+++ = 90-100% control at 100 ppm)
[2]
  RICE BLAST: +++ (+++ = 90-100% control at 100 ppm)
[3]
  LEAF RUST: +++ (+++ = 90-100% control at 100 ppm)
[4]
  GRAY MOLD: - (- = 0-19% control at 400 ppm)
[5]
  DOWN MDEW: +++ (+++ = 90-100% control at 100 ppm)
[6]
  mortality at 24 ppm: 0%
[7]
  mortality at 400 ppm: 100%
[8]
  mortality at 400 ppm: 100%
[9]
  mortality at 400 ppm: 0%
